# Results: patent US20050282755A1, “Compositions having antimicrobial activity and uses thereof” (priority 2004, published 2005)
# Starred links: 1 amine or outer side, 2 acyl side, 3 side chain; linkers in the order of their positions; H or OH if unused. Non-standard residues stand in square brackets, D forms with d. Residues, ends and D or L forms follow the SMILES beside them. *: point of attachment. Ethylenediamine = C(CN[*:2])N[*:1]; Lauroyl = CCCCCCCCCCCC(=O)*; Decanoyl = CCCCCCCCCC(=O)*; Octanoyl = CCCCCCCC(=O)*; Hexanoyl = CCCCCC(=O)*
# What was measured:
# Assay type in all cases: cell-based
# [1] = system: Pseudomonas aeruginosa ATCC 27853; experiment: MIC, NCCLS M7-A6 broth microdilution (Table 9, no superscript); details: ATCC 27853
# How it was run: (§1)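 MIC determined by microdilution in cation-adjusted Mueller Hinton broth after overnight growth at 37° C, defined as the lowest peptide level lacking turbidity.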
# [2] = system: Escherichia coli ATCC 25922; experiment: as above; details: ATCC 25922
# How it was run: as §1
# [3] = system: Salmonella dublin (Lane); experiment: as above
# How it was run: as §1
# [4] = system: Staphylococcus epidermidis ATCC 12228; experiment: as above; details: ATCC 12228
# How it was run: as §1
# [5] = system: Candida albicans ATCC 18804; experiment: MIC in yeasts, NCCLS M27-A2 broth microdilution, RPMI 1640 (Table 9, letter e); details: ATCC 18804
# How it was run: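 Broth microdilution per NCCLS M27-A2 in RPMI 1640 with glutamine and phenol red, final inoculum 0.5×10^3–2.5×10^3 CFU/milliliter. Incubated 24 to 48 hours at 37° C; MIC is the lowest peptide concentration with no visible growth.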
# [6] = system: Staphylococcus aureus ATCC 29213; experiment: MIC, NCCLS M7-A6 broth microdilution, cation-adjusted Mueller Hinton broth (Table 9, no superscript); details: ATCC 29213
# How it was run: as §1
# [7] = system: Propionibacterium acnes ATCC 6919; experiment: MIC, agar dilution method NCCLS M11-A6, Brucella agar, anaerobic (Table 9, superscript c); details: ATCC 6919
# How it was run: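 Agar dilution per NCCLS M11-A6 on Brucella agar; final inoculum 1.5×10^8 CFU/milliliter applied to plates, incubated 48-96 hours at 37° C. under anaerobic (GasPak) conditions. MIC = lowest peptide concentration with no colony growth.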
Compound,MIC P. aeruginosa [1],MIC E. coli [2],MIC S. dublin [3],MIC S. epidermidis [4],MIC C. albicans [5],MIC S. aureus [6],MIC P. acnes [7]
"CCCCCCCCCCCC(=O)N[C@@H](CCCNC(=N)N)C(=O)N[C@@H](CO)C(=O)N[C@@H](CCCNC(=N)N)C(=O)N[C@@H](Cc1c[nH]c2ccccc12)C(=O)N[C@@H](CCCNC(=N)N)C(=O)N[C@@H](CC(=O)O)C(=O)N[C@H](C(=O)N[C@@H](CC(C)C)C(=O)N[C@@H](CCCNC(=N)N)C(=O)N[C@@H](CC(N)=O)C(=O)N[C@@H](Cc1ccccc1)C(=O)N[C@@H](CCSC)C(=O)N[C@@H](CCCNC(=N)N)C(N)=O)C(C)C [Peptide 134, Lauryl-RSRWRDVLRNFMR-NH2] (Lauroyl-RSRWRDVLRNFMR-NH2)",32 µg/mL,4 µg/mL,2 µg/mL,1 µg/mL,1e ug/mL,4 µg/mL,2c ug/mL
"CCCCCCCCCCCC(=O)N[C@@H](CCCNC(=N)N)C(=O)N[C@@H](CO)C(=O)N[C@@H](CCCNC(=N)N)C(=O)N[C@@H](Cc1c[nH]c2ccccc12)C(=O)N[C@@H](CCCNC(=N)N)C(=O)N[C@@H](CC(=O)O)C(=O)N[C@H](C(=O)N[C@@H](CC(C)C)C(=O)N[C@@H](CCCNC(=N)N)C(=O)N[C@@H](CC(N)=O)C(=O)N[C@@H](Cc1ccccc1)C(=O)N[C@@H](CC(C)C)C(=O)N[C@@H](CCCNC(=N)N)C(N)=O)C(C)C [Peptide 136, Lauryl-RSRWRDVLRNFLR-NH2] (Lauroyl-RSRWRDVLRNFLR-NH2)",32 µg/mL,8 µg/mL,8 µg/mL,1 µg/mL,1e ug/mL,4 µg/mL,8c ug/mL
"CCCCCCCCCCCC(=O)N[C@@H](CCCNC(=N)N)C(=O)N[C@@H](CO)C(=O)N[C@@H](CCCNC(=N)N)C(=O)N[C@@H](Cc1c[nH]c2ccccc12)C(=O)N[C@@H](CCCNC(=N)N)C(=O)N[C@@H](CC(=O)O)C(=O)N[C@H](C(=O)N[C@@H](C)C(=O)N[C@@H](CCCNC(=N)N)C(=O)N[C@@H](CC(N)=O)C(=O)N[C@@H](Cc1c[nH]c2ccccc12)C(=O)N[C@@H](CCSC)C(=O)N[C@@H](CCCNC(=N)N)C(N)=O)C(C)C [Peptide 139, Lauryl-RSRWRDVARNWMR-NH2] (Lauroyl-RSRWRDVARNWMR-NH2)",8 µg/mL,8 µg/mL,8 µg/mL,2 µg/mL,8e ug/mL,4 µg/mL,16c ug/mL
"CCCCCCCCCCCC(=O)N[C@@H](CCCNC(=N)N)C(=O)N[C@@H](CO)C(=O)N[C@@H](CCCNC(=N)N)C(=O)N[C@@H](Cc1c[nH]c2ccccc12)C(=O)N[C@@H](CCCNC(=N)N)C(=O)N[C@@H](CC(=O)O)C(=O)N[C@@H](Cc1c[nH]c2ccccc12)C(=O)N[C@@H](C)C(=O)N[C@@H](CCCNC(=N)N)C(=O)N[C@@H](CC(N)=O)C(=O)N[C@@H](Cc1ccccc1)C(=O)N[C@@H](CCSC)C(=O)N[C@@H](CCCNC(=N)N)C(N)=O [Peptide 140, Lauryl-RSRWRDWARNFMR-NH2] (Lauroyl-RSRWRDWARNFMR-NH2)",8 µg/mL,4 µg/mL,4 µg/mL,2 µg/mL,2e ug/mL,2 µg/mL,16c ug/mL
"CCCCCCCCCCCC(=O)N[C@@H](CCCNC(=N)N)C(=O)N[C@@H](CO)C(=O)N[C@@H](CCCNC(=N)N)C(=O)N[C@@H](Cc1c[nH]c2ccccc12)C(=O)N[C@@H](CCCNC(=N)N)C(=O)N[C@@H](CC(=O)O)C(=O)N[C@H](C(=O)N[C@@H](C)C(=O)N[C@@H](CCCNC(=N)N)C(=O)N[C@@H](CC(N)=O)C(=O)N[C@@H](Cc1ccccc1)C(=O)N[C@@H](CCSC)C(=O)N[C@@H](CCCNC(=N)N)C(=O)N[C@@H](Cc1c[nH]c2ccccc12)C(N)=O)C(C)C [Peptide 141, Lauryl-RSRWRDVARNFMRW-NH2] (Lauroyl-RSRWRDVARNFMRW-NH2)",>64 µg/mL,16 µg/mL,16 µg/mL,4 µg/mL,2e ug/mL,16 µg/mL,32c ug/mL
"CCCCCCCCCCCC(=O)N[C@@H](CCCNC(=N)N)C(=O)N[C@@H](CO)C(=O)N[C@@H](CCCNC(=N)N)C(=O)N[C@@H](Cc1c[nH]c2ccccc12)C(=O)N[C@@H](CCCNC(=N)N)C(=O)N[C@@H](CC(=O)O)C(=O)N[C@@H](Cc1c[nH]c2ccccc12)C(=O)N[C@@H](C)C(=O)N[C@@H](CCCNC(=N)N)C(=O)N[C@@H](CC(N)=O)C(=O)N[C@@H](Cc1c[nH]c2ccccc12)C(=O)N[C@@H](CCSC)C(=O)N[C@@H](CCCNC(=N)N)C(N)=O [Peptide 143, Lauryl-RSRWRDWARNWMR-NH2] (Lauroyl-RSRWRDWARNWMR-NH2)",16 µg/mL,4 µg/mL,4 µg/mL,2 µg/mL,4e ug/mL,4 µg/mL,2c ug/mL
"CCCCCCCCCCCC(=O)N[C@@H](CCCNC(=N)N)C(=O)N[C@H](CO)C(=O)N[C@@H](CCCNC(=N)N)C(=O)N[C@H](Cc1c[nH]c2ccccc12)C(=O)N[C@@H](CCCNC(=N)N)C(=O)N[C@H](CC(=O)O)C(=O)N[C@@H](C(=O)N[C@H](C)C(=O)N[C@@H](CCCNC(=N)N)C(=O)N[C@H](CC(N)=O)C(=O)N[C@H](Cc1ccccc1)C(=O)N[C@H](CCSC)C(=O)N[C@@H](CCCNC(=N)N)C(N)=O)C(C)C [Peptide 158, Lauryl-RsRwRdvaRnfmR-NH2] (Lauroyl-R[dS]R[dW]R[dD][dV][dA]R[dN][dF][dM]R-NH2)",4 µg/mL,16 µg/mL,16 µg/mL,2 µg/mL,32e ug/mL,8 µg/mL,8c ug/mL
"CCCCCC(=O)NCCNC(=O)[C@H](CCCNC(=N)N)NC(=O)[C@H](CC(C)C)NC(=O)[C@H](Cc1ccccc1)NC(=O)[C@H](CC(N)=O)NC(=O)[C@H](CCCNC(=N)N)NC(=O)[C@H](C)NC(=O)[C@@H](NC(=O)[C@H](CC(=O)O)NC(=O)[C@H](CCCNC(=N)N)NC(=O)[C@H](Cc1c[nH]c2ccccc12)NC(=O)[C@H](CCCNC(=N)N)NC(=O)[C@H](CO)NC(=O)[C@@H](N)CCCNC(=N)N)C(C)C [Peptide 168, H2N-RSRWRDVARNFLR-Ethylamidohexanyl] (H-RSRWRDVARNFLR-{Ethylenediamine-Hexanoyl}; C-terminus assumed)",32 µg/mL,2 µg/mL,16 µg/mL,1 µg/mL,32e ug/mL,16 µg/mL,64c ug/mL
"CCCCCC(=O)NCCNC(=O)[C@H](CCCNC(=N)N)NC(=O)[C@H](CCSC)NC(=O)[C@H](Cc1ccccc1)NC(=O)[C@H](CC(N)=O)NC(=O)[C@H](CCCNC(=N)N)NC(=O)[C@H](C)NC(=O)[C@@H](NC(=O)[C@H](CC(=O)O)NC(=O)[C@H](CCCNC(=N)N)NC(=O)[C@H](Cc1c[nH]c2ccccc12)NC(=O)[C@H](CCCNC(=N)N)NC(=O)[C@H](CO)NC(=O)[C@@H](N)CCCNC(=N)N)C(C)C [Peptide 173, H2N-RSRWRDVARNFMR-Ethylamidohexanyl] (H-RSRWRDVARNFMR-{Ethylenediamine-Hexanoyl}; C-terminus assumed)",16 µg/mL,8 µg/mL,32 µg/mL,2 µg/mL,64e ug/mL,16 µg/mL,>64c ug/mL
"CCCCCCCC(=O)NCCNC(=O)[C@H](CCCNC(=N)N)NC(=O)[C@H](CCSC)NC(=O)[C@H](Cc1ccccc1)NC(=O)[C@H](CC(N)=O)NC(=O)[C@H](CCCNC(=N)N)NC(=O)[C@H](C)NC(=O)[C@@H](NC(=O)[C@H](CC(=O)O)NC(=O)[C@H](CCCNC(=N)N)NC(=O)[C@H](Cc1c[nH]c2ccccc12)NC(=O)[C@H](CCCNC(=N)N)NC(=O)[C@H](CO)NC(=O)[C@@H](N)CCCNC(=N)N)C(C)C [Peptide 174, H2N-RSRWRDVARNFMR-Ethylamidooctanyl] (H-RSRWRDVARNFMR-{Ethylenediamine-Octanoyl}; C-terminus assumed)",4 µg/mL,2 µg/mL,16 µg/mL,1 µg/mL,32e ug/mL,8 µg/mL,64c ug/mL
"CCCCCCCCCC(=O)NCCNC(=O)[C@H](CCCNC(=N)N)NC(=O)[C@H](CCSC)NC(=O)[C@H](Cc1ccccc1)NC(=O)[C@H](CC(N)=O)NC(=O)[C@H](CCCNC(=N)N)NC(=O)[C@H](C)NC(=O)[C@@H](NC(=O)[C@H](CC(=O)O)NC(=O)[C@H](CCCNC(=N)N)NC(=O)[C@H](Cc1c[nH]c2ccccc12)NC(=O)[C@H](CCCNC(=N)N)NC(=O)[C@H](CO)NC(=O)[C@@H](N)CCCNC(=N)N)C(C)C [Peptide 175, H2N-RSRWRDVARNFMR-Ethylamidodecanyl] (H-RSRWRDVARNFMR-{Ethylenediamine-Decanoyl}; C-terminus assumed)",2 µg/mL,4 µg/mL,4 µg/mL,1 µg/mL,8e ug/mL,4 µg/mL,32c ug/mL
